Values belong to the compound of their own block, whether it stands above or below them.
Key:
[1] = biological target: T1, Rhodopsin kinase GRK1 (Homo sapiens) (UniProt Q15835); test: Inhibition of human recombinant RHOK at 500 nM in presence of ATP by radiometric assay relative to control
T1 sequence (whole entry): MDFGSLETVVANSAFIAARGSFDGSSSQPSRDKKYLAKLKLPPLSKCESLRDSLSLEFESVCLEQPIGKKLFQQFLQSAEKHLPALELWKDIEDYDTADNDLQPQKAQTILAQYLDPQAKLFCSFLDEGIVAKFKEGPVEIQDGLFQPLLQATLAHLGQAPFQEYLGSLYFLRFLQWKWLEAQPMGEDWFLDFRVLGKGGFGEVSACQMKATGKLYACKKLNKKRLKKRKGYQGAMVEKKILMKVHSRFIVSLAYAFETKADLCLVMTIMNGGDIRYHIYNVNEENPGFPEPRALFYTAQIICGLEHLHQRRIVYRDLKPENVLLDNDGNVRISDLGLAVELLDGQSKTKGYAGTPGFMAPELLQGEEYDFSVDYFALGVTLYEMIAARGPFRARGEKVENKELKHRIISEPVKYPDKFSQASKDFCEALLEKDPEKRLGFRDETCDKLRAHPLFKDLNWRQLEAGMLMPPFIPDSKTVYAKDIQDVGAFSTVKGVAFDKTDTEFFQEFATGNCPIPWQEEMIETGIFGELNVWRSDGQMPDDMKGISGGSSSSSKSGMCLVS

[2] = biological target: T2, Serine/threonine-protein kinase D3 (Homo sapiens) (UniProt O94806); test: Inhibition of human recombinant PKD3 at 40 nM in presence of ATP by radiometric assay relative to control
T2 sequence (whole entry): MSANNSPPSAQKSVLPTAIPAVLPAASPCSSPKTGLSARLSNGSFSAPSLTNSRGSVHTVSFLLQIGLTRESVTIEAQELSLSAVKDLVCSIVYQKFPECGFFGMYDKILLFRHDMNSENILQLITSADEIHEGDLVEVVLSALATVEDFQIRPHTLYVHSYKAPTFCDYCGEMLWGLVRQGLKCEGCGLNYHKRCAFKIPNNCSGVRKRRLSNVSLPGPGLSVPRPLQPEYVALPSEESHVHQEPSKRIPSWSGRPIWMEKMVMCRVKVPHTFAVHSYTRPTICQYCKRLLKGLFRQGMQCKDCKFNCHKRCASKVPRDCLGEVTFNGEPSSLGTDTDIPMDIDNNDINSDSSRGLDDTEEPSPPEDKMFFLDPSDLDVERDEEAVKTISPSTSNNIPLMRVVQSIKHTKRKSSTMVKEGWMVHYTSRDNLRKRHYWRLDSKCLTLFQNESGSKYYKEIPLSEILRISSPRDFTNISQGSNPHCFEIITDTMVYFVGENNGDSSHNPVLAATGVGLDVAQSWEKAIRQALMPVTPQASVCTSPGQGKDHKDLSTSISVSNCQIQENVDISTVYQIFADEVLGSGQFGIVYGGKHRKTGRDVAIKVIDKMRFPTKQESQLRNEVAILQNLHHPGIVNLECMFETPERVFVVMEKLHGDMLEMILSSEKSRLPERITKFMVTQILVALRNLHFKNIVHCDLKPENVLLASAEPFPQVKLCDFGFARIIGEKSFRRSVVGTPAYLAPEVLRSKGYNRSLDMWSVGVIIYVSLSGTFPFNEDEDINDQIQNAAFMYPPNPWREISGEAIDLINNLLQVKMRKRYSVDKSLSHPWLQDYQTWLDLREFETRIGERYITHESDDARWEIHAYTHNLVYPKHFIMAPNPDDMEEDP

[3] = biological target: Ephrin type-A receptor 2 (Homo sapiens) (UniProt P29317); test: Inhibition of human recombinant EphA2 at 15 nM in presence of ATP by radiometric assay relative to control
Sequence of Ephrin type-A receptor 2 (Homo sapiens) (P29317 whole entry): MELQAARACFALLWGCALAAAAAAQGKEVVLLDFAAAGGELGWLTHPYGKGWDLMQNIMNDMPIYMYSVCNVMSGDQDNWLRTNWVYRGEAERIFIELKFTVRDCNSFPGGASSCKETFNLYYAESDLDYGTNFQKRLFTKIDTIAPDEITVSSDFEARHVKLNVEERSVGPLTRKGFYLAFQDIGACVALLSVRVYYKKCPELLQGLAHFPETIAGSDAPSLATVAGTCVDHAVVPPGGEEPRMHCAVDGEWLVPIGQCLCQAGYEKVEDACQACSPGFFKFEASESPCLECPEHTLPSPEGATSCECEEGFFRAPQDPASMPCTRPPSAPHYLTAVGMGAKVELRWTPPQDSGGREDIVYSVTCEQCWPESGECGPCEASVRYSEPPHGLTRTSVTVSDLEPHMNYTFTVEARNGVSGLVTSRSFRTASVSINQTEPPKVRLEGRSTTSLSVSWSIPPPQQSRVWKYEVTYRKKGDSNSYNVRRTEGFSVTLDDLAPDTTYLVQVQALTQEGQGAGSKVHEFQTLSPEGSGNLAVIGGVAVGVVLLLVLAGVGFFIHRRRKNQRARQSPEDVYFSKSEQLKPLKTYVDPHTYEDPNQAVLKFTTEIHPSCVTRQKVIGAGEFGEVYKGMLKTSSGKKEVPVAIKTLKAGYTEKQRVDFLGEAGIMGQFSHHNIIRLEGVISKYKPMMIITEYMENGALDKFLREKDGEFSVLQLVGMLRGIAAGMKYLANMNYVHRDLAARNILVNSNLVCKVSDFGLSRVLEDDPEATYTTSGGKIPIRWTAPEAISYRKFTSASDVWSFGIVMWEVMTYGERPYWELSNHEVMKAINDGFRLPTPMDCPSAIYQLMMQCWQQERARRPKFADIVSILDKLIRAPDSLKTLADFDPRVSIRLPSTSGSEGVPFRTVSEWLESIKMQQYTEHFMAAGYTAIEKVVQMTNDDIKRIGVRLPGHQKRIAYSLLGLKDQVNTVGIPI

[4] = biological target: Proto-oncogene tyrosine-protein kinase ROS (Homo sapiens) (UniProt P08922); test: Inhibition of human recombinant ROS at 15 nM related to control ULK1
Sequence of Proto-oncogene tyrosine-protein kinase ROS (Homo sapiens) (P08922 whole entry): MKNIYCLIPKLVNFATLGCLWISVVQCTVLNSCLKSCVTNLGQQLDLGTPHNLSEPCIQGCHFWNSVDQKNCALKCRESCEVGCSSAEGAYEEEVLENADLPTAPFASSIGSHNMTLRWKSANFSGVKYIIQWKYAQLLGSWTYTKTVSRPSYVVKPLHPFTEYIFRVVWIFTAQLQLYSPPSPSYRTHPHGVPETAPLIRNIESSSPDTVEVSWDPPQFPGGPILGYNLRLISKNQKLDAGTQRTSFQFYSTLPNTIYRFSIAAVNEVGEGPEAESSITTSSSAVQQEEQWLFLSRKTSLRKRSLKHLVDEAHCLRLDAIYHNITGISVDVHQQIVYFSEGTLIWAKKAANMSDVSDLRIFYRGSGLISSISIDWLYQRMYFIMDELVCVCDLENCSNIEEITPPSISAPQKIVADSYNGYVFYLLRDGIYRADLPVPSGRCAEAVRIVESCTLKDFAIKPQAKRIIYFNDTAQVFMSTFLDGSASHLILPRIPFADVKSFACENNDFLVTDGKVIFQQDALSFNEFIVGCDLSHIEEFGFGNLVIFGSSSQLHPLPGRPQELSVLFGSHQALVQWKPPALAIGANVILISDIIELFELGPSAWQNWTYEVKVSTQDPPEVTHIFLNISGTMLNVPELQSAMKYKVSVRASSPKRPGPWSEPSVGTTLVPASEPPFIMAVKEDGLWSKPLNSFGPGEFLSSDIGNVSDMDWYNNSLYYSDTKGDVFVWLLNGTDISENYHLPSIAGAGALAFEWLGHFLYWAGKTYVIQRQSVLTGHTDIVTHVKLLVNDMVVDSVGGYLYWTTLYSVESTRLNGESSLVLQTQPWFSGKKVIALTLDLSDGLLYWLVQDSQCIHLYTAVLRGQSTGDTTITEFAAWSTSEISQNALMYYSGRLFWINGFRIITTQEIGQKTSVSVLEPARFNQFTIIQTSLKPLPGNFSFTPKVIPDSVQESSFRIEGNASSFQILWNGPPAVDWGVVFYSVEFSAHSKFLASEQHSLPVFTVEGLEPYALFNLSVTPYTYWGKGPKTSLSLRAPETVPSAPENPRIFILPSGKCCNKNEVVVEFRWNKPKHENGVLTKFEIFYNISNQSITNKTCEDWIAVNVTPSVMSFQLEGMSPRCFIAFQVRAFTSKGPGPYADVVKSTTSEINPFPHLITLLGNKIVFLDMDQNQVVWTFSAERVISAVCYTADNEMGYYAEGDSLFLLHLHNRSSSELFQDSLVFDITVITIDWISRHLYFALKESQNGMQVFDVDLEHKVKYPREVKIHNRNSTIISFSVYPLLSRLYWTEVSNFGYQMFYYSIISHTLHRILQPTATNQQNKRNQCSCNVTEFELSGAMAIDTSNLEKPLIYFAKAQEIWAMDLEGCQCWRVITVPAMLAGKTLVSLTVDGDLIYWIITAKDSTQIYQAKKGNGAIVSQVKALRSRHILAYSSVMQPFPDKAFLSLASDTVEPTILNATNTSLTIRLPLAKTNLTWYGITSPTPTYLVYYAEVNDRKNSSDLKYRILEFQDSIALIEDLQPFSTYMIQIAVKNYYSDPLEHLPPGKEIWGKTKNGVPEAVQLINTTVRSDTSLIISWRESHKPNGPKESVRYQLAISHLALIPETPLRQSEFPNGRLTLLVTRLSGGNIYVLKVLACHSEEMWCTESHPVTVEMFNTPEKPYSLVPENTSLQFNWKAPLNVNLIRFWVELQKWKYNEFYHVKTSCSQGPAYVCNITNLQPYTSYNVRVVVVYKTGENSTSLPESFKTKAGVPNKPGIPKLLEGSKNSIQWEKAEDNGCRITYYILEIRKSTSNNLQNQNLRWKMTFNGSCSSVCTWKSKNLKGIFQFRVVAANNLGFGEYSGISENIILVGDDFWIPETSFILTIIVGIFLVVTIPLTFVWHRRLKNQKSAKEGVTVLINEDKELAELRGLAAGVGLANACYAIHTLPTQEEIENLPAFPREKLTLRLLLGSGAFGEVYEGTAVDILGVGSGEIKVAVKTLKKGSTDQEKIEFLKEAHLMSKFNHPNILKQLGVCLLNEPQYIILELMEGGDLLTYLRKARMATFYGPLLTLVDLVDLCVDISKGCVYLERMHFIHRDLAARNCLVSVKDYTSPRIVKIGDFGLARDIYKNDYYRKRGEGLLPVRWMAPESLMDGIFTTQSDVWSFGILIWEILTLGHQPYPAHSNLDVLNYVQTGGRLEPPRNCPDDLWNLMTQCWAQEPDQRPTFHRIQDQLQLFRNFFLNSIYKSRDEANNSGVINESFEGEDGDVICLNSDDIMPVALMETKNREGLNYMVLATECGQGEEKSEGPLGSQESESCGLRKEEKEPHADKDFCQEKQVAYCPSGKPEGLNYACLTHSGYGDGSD

[5] = biological target: T3, Dual specificity protein kinase TTK (Homo sapiens) (UniProt P33981); test: Inhibition of human recombinant TTK at 15 nM related to control ULK1
T3 sequence (whole entry): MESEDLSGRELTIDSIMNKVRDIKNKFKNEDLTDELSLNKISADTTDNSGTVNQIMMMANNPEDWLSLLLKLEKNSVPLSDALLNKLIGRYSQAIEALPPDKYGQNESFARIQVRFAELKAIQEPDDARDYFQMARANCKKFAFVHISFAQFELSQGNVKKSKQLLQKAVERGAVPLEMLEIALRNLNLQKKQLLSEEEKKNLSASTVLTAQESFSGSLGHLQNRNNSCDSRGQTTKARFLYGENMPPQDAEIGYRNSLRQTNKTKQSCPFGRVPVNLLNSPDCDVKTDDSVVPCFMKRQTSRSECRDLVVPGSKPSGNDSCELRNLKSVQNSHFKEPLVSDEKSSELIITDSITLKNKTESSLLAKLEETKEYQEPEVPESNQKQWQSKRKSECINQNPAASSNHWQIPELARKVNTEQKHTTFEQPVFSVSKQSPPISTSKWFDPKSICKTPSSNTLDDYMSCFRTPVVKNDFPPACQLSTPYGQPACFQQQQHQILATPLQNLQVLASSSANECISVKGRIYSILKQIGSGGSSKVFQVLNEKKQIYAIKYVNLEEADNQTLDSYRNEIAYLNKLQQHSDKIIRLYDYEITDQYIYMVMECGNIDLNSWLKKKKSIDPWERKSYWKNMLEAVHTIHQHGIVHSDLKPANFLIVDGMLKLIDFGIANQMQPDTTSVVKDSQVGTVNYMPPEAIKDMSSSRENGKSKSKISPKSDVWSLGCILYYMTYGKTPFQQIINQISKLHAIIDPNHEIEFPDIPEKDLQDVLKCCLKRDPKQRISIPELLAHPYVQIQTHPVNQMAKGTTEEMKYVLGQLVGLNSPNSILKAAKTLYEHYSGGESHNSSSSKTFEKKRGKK

inhibition [1]: 0%
Structure (SMILES): CNC(=O)c1ccccc1Oc1nc(Nc2cc(OC)c(OC)c(OC)c2)ncc1Br

inhibition [2]: 7%
Structure (SMILES): O=C(N[C@@H](C1CC1)C(F)(F)F)c1cc(-c2cnn3cc(-c4ccc(F)cc4)cnc23)cs1

inhibition [3]: 0% | fold change (FC) [4]: 0 | fold change (FC) [5]: 0.25
Structure (SMILES): CC(C)[C@H](NC(=O)c1cc(-c2cnn3cc(-c4ccc(OCCN5CCCCC5)cc4)cnc23)cs1)C(F)(F)F
